Assay [1] deals with RAJI cells. Briefly: Rituximab-induced ADCC of RAJI cells, 51Cr-release assay with PBMC. To be noted: for EC50 for rituximab-mediated ADCC: E:T 100:1. In kind it is cell-based, human. As for the experimental part: In the antibody-dependent cellular cytotoxicity (ADCC) assay target B cells are labelled with radioactive chromium (^51Cr), and incubated with antibody and effector cells. Upon lysis the target cells release ^51Cr which can be measured by separation of the supernatant from the cells and quantification using a scintillation counter.
RAJI cells (obtained from ECACC, Porton Down, United Kingdom) served as target cells, and were cultured in RPMI 1640 supplemented with 10% heat-inactivated cosmic calf serum (CCS), 1 U/ml penicillin, 1 μg/ml streptomycin, and 4 mM L-glutamine (all from Invitrogen, Carlsbad, Calif.). RAJI cells were either non-treated or cholesterol-depleted using lovastatin (10 μM) as described in Example 3, and re-suspended in test medium to a concentration of 2×10^6 viable cells/ml.
RAJI cells were labeled with 20 μCi^51Cr (Amersham Biosciences, Uppsala, Sweden) for 2 hours. After extensive washing in medium, the cells were adjusted to 2×10^5 cells/ml. […] Assays were started by adding ^51Cr-labeled RAH cells (50 μl) giving a final volume of 200 >l. For isolated effector cells, containing 20% NK cells, an effector to target (E:T) ratio of 100:1 was used. After incubation (4 hours, 37° C.), assays were stopped by centrifugation, and ^51Cr release from triplicates was measured in counts per minute (cpm) in a scintillation counter. Percentage of cellular cytotoxicity was calculated using the following formula:
% specific lysis=(experimental cpm−basal cpm)/(maximal cpm−basal cpm)×100
with maximal ^51Cr release determined by adding TritonX-100 (5% final concentration) to target cells, and basal release measured in the absence of sensitizing antibodies and effector cells.

The subject of assay [2] is B cell enriched cell population of a healthy volunteer. The assay is described as follows: Anti-CD20-induced CDC of freshly isolated primary B cells. Format: cell-based, human. To be noted: for primary B cell population killed / cell lysis: MβCD-treated, saturating conditions (≧10 μg/ml); for cell lysis upon cholesterol depletion: primary B cells treated with MβCD. The protocol:
Blood was obtained from a donor (either from a healthy volunteer or from patients included in clinical trials related to 2F2). Informed consent was provided according to the Declaration of Helsinki. The blood was used to isolate peripheral blood mononuclear cells (PMBC) via […] gradient separation. Briefly, 10 ml of whole blood was supplemented with 20-25 ml PBS (Braun, Oss, Netherlands). 13 ml of Lymphocyte Separation Medium (Lonza, Verviers, Belgium) was pipetted carefully underneath the diluted whole blood solution. The solution was centrifuged at 2000 rpm for 20 minutes whereupon the interphase containing the PBMC was collected. The cells were washed twice in PBS, counted with trypan blue and suspended in test medium (RMPI 1640/pen strep/0.1% BSA) at a concentration of 2-4×10^6 viable cells/ml. Cells were used to enrich B cells via negative depletion as described in Example 8.
PBMC (obtained as described under Example 17) were used to enrich for B cells using the Dynal B cell negative isolation kit (Dynal, Invitrogen, Carlsbad, Calif.) according to manufacturer's instruction. In brief, PBMC were washed and incubated for 20 minutes with mouse monoclonal antibodies directed against CD2, CD14, CD16, CD36, CD43 or CD235a at 4° C. Magnetic beads coated with human IgG4 against mouse monoclonal antibodies were added and the mixture was again incubated for 15 minutes at 4° C. After incubation mouse mAb-stained cells were separated from the mixture using a magnet. The remaining cells are considered as the B cell enriched population.
Human B cells were isolated from whole blood of a healthy volunteer (donor A) as described under Example 17 and Example 18.
The B cell enriched cell population of donor A and Daudi cells were incubated with MβCD as described under Example 2 and cell surface protein expression and sensitivity for CDC was measured.

The subject of assay [3] is WIL2-S cells. Briefly: CD20 mAb-induced CDC of WIL2-S cells, PI/FACS analysis. Format: cell-based, human. To be noted: for CDC inducing capacity after cholesterol replenishment: WIL2-S cells, cholesterol replenished; for sensitivity for CDC induction: lovastatin-treated vs non-treated WIL2-S cells. (In flow cytometry, cells or beads pass a laser one at a time.)
Assay [4] relates to CD20 on freshly isolated B cells. The assay is described as follows: CD20/CD21 MFI ratio on freshly isolated B cells of atorvastatin-treated patients. Format: in vivo, human. To be noted: day 3 vs day 0 after single dose 80 mg atorvastatin; CD20 detected with the named mAb. An excerpt: CD21 is a protein expressed by B cells. Its expression has been shown unaffected upon cholesterol depletion of a B cell line (Daudi) and for freshly isolated B cell enriched cell population of two independent donors (FIG. 26). Therefore, CD21 mAb binding is considered as an indicator for the amount of B cells present per staining. The MFI of CD20 mAb and CD21 mAb binding was identified by gating on viable cells in the lymphogate (FSC vs SSC), and subsequently on CD21+ cells when analyzing the MFI for the CD20 mAb. In order to be able to correlate the CD20 expression measured in between days CD20 mAb binding was quantitated relative to CD21 mAb binding within the same staining by calculating the ratio of MFI of CD20/CD21 mAb.
To determine CD20 and CD21 expression on B cells of hypercholesterolemic patients treated with atorvastatin PBMC were isolated out of whole blood drawn on day 0 (pre-treatment) and day 3 after treatment (as described in Example 7). Freshly isolated B cells were stained with different FITC-conjugated CD20 mAbs 2F2, 11B8, B1 (GlaxoSmithKline, Stevenage, United Kingdom) and PE-conjugated CD21 mAb (B-Ly4, BD Pharmingen, Franklin Lakes, N.J.) by 30 minutes incubation at room temperature in the dark. Cells were washed and mAb binding intensity (MFI) was analysed using a FACS Calibur (Becton Dickinson, Breda, The Netherlands).

Assay [5] deals with Daudi cells. The assay is described as follows: CDC of Daudi cells, MTT analysis. Format: cell-based, human. The conditions noted are these: increased concentrations of MβCD. As for the experimental part:
CDC was induced by incubating B cells with anti-CD20 mAb (as described in Example 2). After 1-hour incubation (3-(4,5-dimethylthiazol-2-yl)-2,5-diphenyltetrazolium bromide (MTT) solution (5 mg/ml, Roche, Diagnostics, Almere, The Netherlands) was added to each well (flat-bottom microtiter plates; Nunc, Rochester, N.Y.). The reaction was stopped after 4 hours of incubation at 37° C. by the addition of 100 μl of 20% SDS (Roche Diagnostics, Almere, The Netherlands). After overnight incubation at 37° C. the absorbance of the samples was measured at 550-525 nm using an Elisa reader (EL808x, Biotek instruments, Highland park, Vt., USA). Cytotoxicity was expressed as a relative viability of the stimulated cells compared to cells incubated with medium only and was calculated as follows: relative viability=[(Ae−Ab)/(Ac−Ab)]*100, where Ab is the background absorbance, Ae is experimental absorbance of the lysed cells and Ac is the absorbance of untreated cells. The viability was expressed as percentage survival in comparison to non-cholesterol depleted cells (control).

These results are taken from patent US20110091473A1, “NOVEL ANTIBODY THERAPIES” (GENMAB A/S, priority 2007, published 2011).

As to “rituximab: anti-CD20 antibody Rituxan/MabThera, type I”, the “EC50 for rituximab-mediated ADCC” value in assay [1] (control (non-treated) RAJI cells) was determined as 0.024 µg/mL. In addition, the “EC50 for rituximab-mediated ADCC” value in assay [1] (lovastatin-treated (10 μM) RAJI cells) worked out at 0.082 µg/mL. In addition, the “increase of EC50 for rituximab-mediated ADCC” value in assay [1] (lovastatin-treated vs control cells) is listed as about 4 fold. Also, in assay [2], the “primary B cell population killed / cell lysis” value is given as 20-25% and the “cell lysis upon cholesterol depletion” value is recorded as “reduced”. For the same substance, in assay [3], the “CDC inducing capacity after cholesterol replenishment” value was “fully restored” and the “sensitivity for CDC induction” value was “less sensitive”.
As to “2F2: human anti-CD20 mAb, VH SEQ ID NO:1, VL SEQ ID NO:2, disclosed in WO 2004/035607”, in assay [2], the “primary B cell population killed / cell lysis” value is “approximately 75%” and the “cell lysis upon cholesterol depletion” value is given as “reduced”. Moreover, the “lysis of B cell enriched cell population” value in assay [2] (non-depleted primary B cells, donor A) is on record as “could be lysed”. Further, in assay [3], the “CDC inducing capacity after cholesterol replenishment” value is “fully restored” and the “sensitivity for CDC induction” value is listed as “less sensitive”. In addition, the “average decrease in CD20/CD21 MFI ratio” value in assay [4] was 18%. Further, the “mAb-induced CDC (cell survival)” value in assay [5] was “diminished”.
